# Assay results from patent US10689383B2, “Optionally fused heterocyclyl-substituted derivatives of pyrimidine useful for the treatment of inflammatory, metabolic, oncologic and autoimmune diseases” (NUEVOLUTION A/S, priority 2014, dated 2020).
# Target: T1, human RORγt (Ligand Binding Domain) (Homo sapiens, UniProt P51449)
# T1 construct: purchased Crelux (Planegg, Germany) batch no PC5032-1
# T1 sequence (P51449 269-508 limits assumed): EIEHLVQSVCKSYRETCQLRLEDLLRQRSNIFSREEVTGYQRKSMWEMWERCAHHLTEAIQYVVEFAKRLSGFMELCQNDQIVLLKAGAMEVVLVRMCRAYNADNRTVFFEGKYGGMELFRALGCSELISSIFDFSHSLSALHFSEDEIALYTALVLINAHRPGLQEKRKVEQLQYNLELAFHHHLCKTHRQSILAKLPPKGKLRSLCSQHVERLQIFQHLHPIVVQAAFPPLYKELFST
# Assay: Fluorescence Polarization (FP) Assay
# Settings: not given
# Outline: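 In vitro FP binding assay monitoring ligand binding within the ligand binding pocket. Probe is a TAMRA-labelled RORγt ligand (MW 910 g/mole); DMSO served as negative control.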
row,SMILES,IC50
1,"Oc1cc(CNc2ncnc(N3CCCC3c3ccc(C(F)(F)F)cc3)c2F)on1 (stereo not shown) [Example 216, 5-[[[5-fluoro-6-[2-[4-(trifluoromethyl)phenyl]pyrrolidin-1-yl]pyrimidin-4-yl]amino]methyl]isoxazol-3-ol]",< 10 µM

# Same assay, conditions: Fluorescence Polarization (FP) Assay; values given as upper bounds of activity ranges; read-out: FP activity range
row,SMILES,IC50
1,"O=S1(=O)CCC(CNc2ncnc(N3CCC[C@@H]3c3ccc(C(F)(F)F)cc3)c2F)C1 (stereo partly drawn) [Example 184, N-[(1,1-dioxothiolan-3-yl)methyl]-5-fluoro-6-[(2R)-2-[4-(trifluoromethyl)phenyl]pyrrolidin-1-yl]pyrimidin-4-amine]",< 0.5 µM
2,"[O-][n+]1cccc(CNc2ncnc(N3CCC[C@@H]3c3ccc(C(F)(F)F)cc3)c2F)c1 [Example 193, 5-fluoro-N-[(1-oxidopyridin-1-ium-3-yl)methyl]-6-[(2R)-2[4-(trifluoromethyl)phenyl]pyrrolidin-1-yl]pyrimidin-4-amine]",< 10 µM
3,"[O-][n+]1ccc(CNc2ncnc(N3CCC[C@@H]3c3ccc(C(F)(F)F)cc3)c2F)cc1 [Example 194, 5-fluoro-N-[(1-oxidopyridin-1-ium-4-yl)methyl]-6-[(2R)-2-[4-(trifluoromethyl)phenyl]pyrrolidin-1-yl]pyrimidin-4-amine]",< 2 µM
4,"COC1CC(c2ccc(C(F)(F)F)cc2)N(c2ncnc(NCc3ccc(C)nc3)c2F)C1 (stereo not shown) [Example 212, 5-fluoro-6-[4-methoxy-2-[4-(trifluoromethyl)phenyl]pyrrolidin-1-yl]-N-[(6-methyl-3-pyridyl)methyl]pyrimidin-4-amine]",< 10 µM
5,"Cc1cnc(CNc2ncnc(N3CCCC3c3ccc(C(F)(F)F)cc3)c2F)o1 (stereo not shown) [Example 213, 5-fluoro-N-[(5-methyloxazol-2-yl)methyl]-6-[2-[4-(trifluoromethyl)phenyl]pyrrolidin-1-yl]pyrimidin-4-amine]",< 10 µM
6,"Oc1nnc(CNc2ncnc(N3CCCC3c3ccc(C(F)(F)F)cc3)c2F)o1 (stereo not shown) [Example 214, 5-(((5-fluoro-6-(2-(4-(trifluoromethyl)phenyl)pyrrolidin-1-yl)pyrimidin-4-yl)amino)methyl)-1,3,4-oxadiazol-2-ol]",< 10 µM
7,"CCC(Nc1ncnc(N2CCCC2c2ccc(C(F)(F)F)cc2)c1F)c1noc(C)n1 (stereo not shown) [Example 215, 5-fluoro-N-[1-(5-methyl-1,2,4-oxadiazo1-3-yl)propyl]-6-[2-[4-(trifluoromethyl)phenyl]pyrrolidin-1-yl]pyrimidin-4-amine]",< 10 µM
8,"OCc1cccc(CNc2ncnc(N3CCC[C@@H]3c3ccc(C(F)(F)F)cc3)c2F)c1 [Example 217, [3-[[[5-fluoro-6-[(2R)-2-[4-(trifluoromethyl)phenyl]pyrrolidin-1-yl]pyrimidin-4-yl]amino]methyl]phenyl]methanol]",< 10 µM
9,"Fc1c(NCC2CCCC2)ncnc1N1CCC[C@@H]1c1ccc(C(F)(F)F)cc1 [Example 218, N-(cyclopentylmethyl)-5-fluoro-6-[(2R)-2-[4-(trifluoromethyl)phenyl]pyrrolidin-1-yl]pyrimidin-4-amine]",< 10 µM
10,"CS(=O)(=O)c1ccc(CNc2ncnc(N3CCC[C@@H]3c3ccc(C(F)(F)F)cc3)c2F)cc1 [Example 219, 5-fluoro-N-[(4-methylsulfonylphenyl)methyl]-6-[(2R)-2-[4-(trifluoromethyl)phenyl]pyrrolidin-1-yl]pyrimidin-4-amine]",< 10 µM
11,"O=C(O)C[C@H]1CC[C@H](CNc2ncnc(N3CCOC[C@@H]3c3ccc(OC(F)(F)F)cc3)c2F)CC1 [Example 243, 2-[4-[[[5-fluoro-6-[(3S)-3-[4-(trifluoromethoxy)phenyl]morpholin-4-yl]pyrimidin-4-yl]amino]methyl]cyclohexyl]acetic acid]",< 0.5 µM
12,"CNC(=O)Cc1ccc(CNc2ncnc(N3CCOC[C@@H]3c3ccc(C(F)(F)F)cc3)c2F)cc1 [Example 244, 2-[4-[[[5-fluoro-6-[(3S)-3-[4-(trifluoromethyl)phenyl]morpholin-4-yl]pyrimidin-4-yl]amino]methyl]phenyl]-N-methyl-acetamide]",< 2 µM
13,"NC(=O)C1(CNc2ncnc(N3CCOC[C@@H]3c3ccc(C(F)(F)F)cc3)c2F)CCCC1 [Example 249, 1-[[[5-fluoro-6-[(3S)-3-[4-(trifluoromethyl)phenyl]morpholin-4-yl]pyrimidin-4-yl]amino]methyl] cyclopentanecarboxamide]",< 10 µM
14,"CN(C)C(=O)C1(CNc2ncnc(N3CCOC[C@@H]3c3ccc(C(F)(F)F)cc3)c2F)CCCC1 [Example 250, 1-[[[5-fluoro-6-[(3S)-3-[4-(trifluoromethyl)phenyl]morpholin-4-yl]pyrimidin-4-yl]amino]methyl]-N,N-dimethyl-cyclopentanecarboxamide]",< 10 µM
15,"CS(=O)(=O)NC1CCCC1CNc1ncnc(N2CCOC[C@@H]2c2ccc(C(F)(F)F)cc2)c1F (stereo partly drawn) [Example 251, N-[2-[[[5-fluoro-6-[(3S)-3-[4-(trifluoromethyl)phenyl]morpholin-4-yl]pyrimidin-4-yl]amino]methyl]cyclopentyl] methanesulfonamide]",< 10 µM
16,"NCCNC(=O)C1(CNc2ncnc(N3CCOC[C@@H]3c3ccc(C(F)(F)F)cc3)c2F)CCOCC1 [Example 256, N-(2-aminoethyl)-4-[[[5-fluoro-6-[(3S)-3-[4-(trifluoromethyl)phenyl]morpholin-4-yl]pyrimidin-4-yl]amino]methyl]tetrahydropyran-4-carboxamide]",< 10 µM
17,"O=C(O)C1(CNc2ncnc(N3CCOCC3c3ccc(C(F)(F)F)cc3)c2F)CCOCC1 (stereo not shown) [Example 268, 4-[[[5-fluoro-6-[3-[4-(trifluoromethyl)phenyl]morpholin-4-yl]pyrimidin-4-yl]amino]methyl]tetrahydropyran-4-carboxylic acid]",< 10 µM
18,"CS(=O)(=O)c1ccc(CNc2ncnc(N3CCOC[C@@H]3c3ccc(C(F)(F)F)cc3)c2F)cn1 [Example 293, 5-fluoro-N-[(6-methylsulfonyl-3-pyridyl)methyl]-6-[(3S)-3-[4-(trifluoromethyl)phenyl]morpholin-4-yl]pyrimidin-4-amine]",< 1 µM
19,"CC(C)(CCS(C)(=O)=O)CNc1ncnc(N2CCOC[C@@H]2c2ccc(C(F)(F)F)cc2)c1F [Example 294, N-(2,2-dimethyl-4-methylsulfonyl-butyl)-5-fluoro-6-[(3S)-3-[4-(trifluoromethyl)phenyl]morpholin-4-yl]pyrimidin-4-amine]",< 10 µM
20,"OCC1(CNc2ncnc(N3CCOC[C@@H]3c3ccc(C(F)(F)F)cc3)c2F)CC1 [Example 296, [1-[[[5-fluoro-6-[(3S)-3-[4-(trifluoromethyl)phenyl]morpholin-4-yl]pyrimidin-4-yl]amino]methyl]cyclopropyl] methanol]",< 10 µM
21,"CS(=O)(=O)NC1CCN(c2ncnc(N3CCOC[C@@H]3c3ccc(C(F)(F)F)cc3)c2F)CC1 [Example 297, N-[1-[5-fluoro-6-[(3 S)-3-[4-(trifluoromethyl)phenyl]morpholin-4-yl]pyrimidin-4-yl]-4-piperidyl]methanesulfonamide]",< 10 µM
22,"CS(=O)(=O)N1CCOC(CNc2ncnc(N3CCOC[C@@H]3c3ccc(C(F)(F)F)cc3)c2F)C1 (stereo partly drawn) [Example 309, 5-fluoro-N-[(4-methylsulfonylmorpholin-2-yl)methyl]-6-[(3S)-3-[4-(trifluoromethyl)phenyl]morpholin-4-yl]pyrimidin-4-amine]",< 2 µM
23,"NC(=O)Cc1ccc(CNc2ncnc(N3CCCC3c3nc4ccccc4s3)c2F)cc1 (stereo not shown) [Example 310, 2-[4-[[[6-[2-(1,3-benzothiazol-2-yl)pyrrolidin-1-yl]-5-fluoro-pyrimidin-4-yl]amino]methyl]phenyl]acetamide]",< 0.5 µM
24,"NC(=O)Cc1ccc(CNc2ncnc(N3CCCC3c3cccc4ccccc34)c2F)cc1 (stereo not shown) [Example 311, 2-[4-[[[5-fluoro-6-[2-(1-naphthyl)pyrrolidin-1-yl]pyrimidin-4-yl]amino]methyl]phenyl] acetamide]",< 0.5 µM
25,"NC(=O)Cc1ccc(CNc2ncnc(N3CCCC3c3ccc4ccccc4c3)c2F)cc1 (stereo not shown) [Example 312, 2-[4-[[[5-fluoro-6-[2-(2-naphthyl)pyrrolidin-1-yl]pyrimidin-4-yl]amino]methyl]phenyl] acetamide]",< 0.5 µM
26,"Cc1nc(C2CCCN2c2ncnc(NCc3ccc(CC(N)=O)cc3)c2F)no1 (stereo not shown) [Example 314, 2-[4-[[[5-fluoro-6-[2-(5-methyl-1,2,4-oxadiazol-3-yl)pyrrolidin-1-yl]pyrimidin-4-yl]amino]methyl]phenyl]acetamide]",< 10 µM
27,"Cc1nnc(C2CCCN2c2ncnc(NCc3ccc(CC(N)=O)cc3)c2F)o1 (stereo not shown) [Example 315, 2-[4-[[[5-fluoro-6-[2-(5-methyl-1,3,4-oxadiazol-2-yl)pyrrolidin-1-yl]pyrimidin-4-yl]amino]methyl]phenyl]acetamide]",< 10 µM
28,"Cc1nn(C)cc1C1CCCN1c1ncnc(NCc2ccc(CC(N)=O)cc2)c1F (stereo not shown) [Example 317, 2-[4-[[[6-[2-(1,3-dimethylpyrazol-4-yl)pyrrolidin-1-yl]-5-fluoro-pyrimidin-4-yl]amino]methyl]phenyl]acetamide]",< 10 µM
29,"CC(C)(C)C[C@@H](Nc1ncnc(N2CCC[C@@H]2c2ccc(C(F)(F)F)cc2)c1F)C(=O)O [Example 325, (2R)-2-[[5-fluoro-6-[(2R)-2-[4-(trifluoromethyl)phenyl]pyrrolidin-1-yl]pyrimidin-4-yl]amino]-4,4-dimethyl-pentanoic acid]",< 1 µM
30,"CS(=O)(=O)c1ccc(Cn2ccc3c(N4CCOC[C@@H]4c4ccc(OC(F)(F)F)cc4)ncnc32)cn1 [Example 329, (3S)-4-[7-[(6-methylsulfonyl-3-pyridyl)methyl]pyrrolo[2,3-d]pyrimidin-4-yl]-3-[4-(trifluoromethoxy)phenyl] morpholine]",< 2 µM
